Target: PI-3 kinase γ (Homo sapiens, UniProt P48736)
Experiment: PI3Kγ inhibitory activity, PI3-kinase HTRF assay (inhibition ratio)
Format: biochemical
Conditions: 0.5 h; PI3Kγ, compound at 10 μM
Procedure, shortened: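 PI3Kγ preincubated 10 min with compound and PIP2 substrate (MgCl2, DTT), then ATP added for 30 min at room temperature. PIP3 detected by HTRF (665/620 nm ratio) after 18 h. Inhibition ratio at 50 or 10 μmol/L, normalised to no-compound and no-enzyme controls.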

Sequence of PI-3 kinase γ (P48736 whole entry): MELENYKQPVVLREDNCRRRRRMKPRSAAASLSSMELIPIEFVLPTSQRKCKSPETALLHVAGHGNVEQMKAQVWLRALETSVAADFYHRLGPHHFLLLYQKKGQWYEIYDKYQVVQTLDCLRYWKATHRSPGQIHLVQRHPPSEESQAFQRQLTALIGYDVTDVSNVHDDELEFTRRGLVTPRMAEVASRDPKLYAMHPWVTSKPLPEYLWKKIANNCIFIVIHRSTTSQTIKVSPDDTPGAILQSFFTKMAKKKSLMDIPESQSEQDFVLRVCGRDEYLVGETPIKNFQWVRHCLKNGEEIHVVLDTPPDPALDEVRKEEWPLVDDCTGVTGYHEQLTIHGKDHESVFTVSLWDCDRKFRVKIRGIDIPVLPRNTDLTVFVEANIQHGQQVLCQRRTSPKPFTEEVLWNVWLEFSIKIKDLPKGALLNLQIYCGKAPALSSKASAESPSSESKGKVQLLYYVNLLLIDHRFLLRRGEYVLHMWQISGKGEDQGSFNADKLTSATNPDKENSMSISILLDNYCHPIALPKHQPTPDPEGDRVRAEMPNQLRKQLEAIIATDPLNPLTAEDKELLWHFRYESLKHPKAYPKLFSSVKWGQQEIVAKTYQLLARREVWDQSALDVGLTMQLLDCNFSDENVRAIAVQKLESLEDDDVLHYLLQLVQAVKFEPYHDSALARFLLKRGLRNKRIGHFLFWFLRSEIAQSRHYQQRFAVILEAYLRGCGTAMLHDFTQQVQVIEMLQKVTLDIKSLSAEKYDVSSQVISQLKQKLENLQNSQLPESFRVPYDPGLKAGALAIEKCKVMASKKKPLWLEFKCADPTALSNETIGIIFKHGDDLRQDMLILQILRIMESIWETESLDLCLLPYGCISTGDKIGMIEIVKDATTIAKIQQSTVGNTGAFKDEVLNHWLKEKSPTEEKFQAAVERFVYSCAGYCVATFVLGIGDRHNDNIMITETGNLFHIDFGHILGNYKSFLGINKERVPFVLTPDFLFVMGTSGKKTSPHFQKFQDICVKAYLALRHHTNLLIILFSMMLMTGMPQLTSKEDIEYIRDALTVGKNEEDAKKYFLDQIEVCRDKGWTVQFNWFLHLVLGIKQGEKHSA

| inhibition at 10 µM | Structure (SMILES) |
| --- | --- |
| 88% | COc1cc(N2CCc3nc(NC(=O)NCC(=O)OC(C)(C)C)sc3C2)nc(OC)n1 [Compound I-252] |
| ≥ 95% | CNC(=O)Nc1nc2c(s1)CN(c1cc(Oc3ccccc3)nc(OCCCO)n1)CC2 [Compound I-263] |
| ≥ 95% | COc1cc(N2CCc3nc(NC(=O)NCCC(=O)N(C)C(C)(C)C)sc3C2)nc(OC)n1 [Compound I-270] |

Same assay, conditions: 0.5 h; PI3Kγ, compound at 50 μM

| inhibition at 50 µM | Structure (SMILES) |
| --- | --- |
| ≥ 95% | CNC(=O)Nc1cc2n(n1)CCN2c1ccc(C(=O)O)cc1 [Compound I-97] |
| 74% | CNC(=O)Nc1cc2n(n1)CCN2c1cccc(CC(=O)O)c1 [Compound I-153] |
| ≥ 95% | CNC(=O)Nc1cc2n(n1)CCN2c1cc(Br)cc(C(=O)NC)c1 [Compound I-179] |
| 91% | CNC(=O)Nc1cc2n(n1)CCN2c1cc(Oc2ccccc2)cc(C(=O)N2CCOCC2)c1 [Compound I-223] |
| ≥ 95% | CNC(=O)Nc1cc2n(n1)CCN2c1cc(C(=O)N2CCOCC2)cc(-c2ccc(N)cc2)c1 [Compound I-210] |
| ≥ 95% | CNC(=O)Nc1cc2n(n1)CCN2c1ccc2c(c1)C(=O)CC2 [Compound I-216] |
| 92% | CNC(=O)Nc1nc2c(s1)CN(C(=O)OC(C)(C)C)CC2 [Compound I-66] |
| ≥ 95% | CNC(=O)Nc1nc2c(s1)CN(c1cc(C(=O)NC)nc(Cl)n1)CC2 [Compound I-119] |
| ≥ 95% | CNC(=O)Nc1cc2n(n1)CCN2c1nc(C)c(C(=O)O)s1 [Compound I-201] |
| 88% | COc1cc(N2CCc3nc(NC(=O)c4cnco4)sc3C2)nc(OC)n1 [Compound I-204] |
| ≥ 95% | CCOC(=O)c1cccc(N2CCn3nc(NC(=O)NC)cc32)c1 [Compound I-83] |
| 94% | CC(C)(C)OC(=O)N1CCn2nc(NC(=O)NCC(=O)O)cc21 [Compound I-59] |
| 76% | O=C(Nc1cc2n(n1)CCN2c1cccc(Cl)c1)c1nccs1 [Compound I-245] |
| ≥ 95% | CNC(=O)Nc1nc2c(s1)CN(c1cc(Oc3ccccc3)nc(SC)n1)CC2 [Compound I-147] |
| ≥ 95% | CNC(=O)Nc1nc2c(s1)CN(c1cc(C(=O)O)nc(Cl)n1)CC2 [Compound I-101] |
| 93% | CNC(=O)Nc1cc2n(n1)CCN2c1cc(Br)cc(C(=O)N(C)C)c1 [Compound I-195] |
| ≥ 95% | CNC(=O)Nc1cc2n(n1)CCN2c1cc(C(=O)N2CCOCC2)cc(C2CCCCC2)c1 [Compound I-267] |
| 79% | CNC(=O)Nc1cc2n(n1)CCN2c1cc(C(=O)OC)nc(Cl)n1 [Compound I-127] |
| 94% | CNC(=O)Nc1cc2n(n1)CCN2c1cc(Br)cc(C(=O)Nc2cccc(C(=O)OC(C)(C)C)c2)c1 [Compound I-175] |
| 77% | COc1cccc(N2CCn3nc(N)cc32)c1 [Compound I-286] |

| inhibition at 50 µM | Structure (SMILES) |
| --- | --- |
| ≥ 95% | CNC(=O)Nc1cc2n(n1)CCN2c1cccc(-c2cnc(C)o2)c1 [Compound I-164] |
| ≥ 95% | CNC(=O)Nc1nc2c(s1)CN(c1cc(Cl)nc(SC)n1)CC2 [Compound I-128] |
| ≥ 95% | CNC(=O)Nc1cc2n(n1)CCN2c1cccc(Cl)c1 [Compound I-67] |
| 84% | O=C(Nc1cc2n(n1)CCN2c1cccc(Cl)c1)c1ccc2nccn2c1 [Compound I-241] |
| 90% | CNC(=O)Nc1cc2n(n1)CCN(c1cccnc1)C2 [Compound I-86] |
| 91% | CNC(=O)Nc1cc2n(n1)CCN2c1cccc(-c2csc(NC(=O)OC(C)(C)C)n2)c1 [Compound I-188] |
| 95% | O=C(O)c1cccc(C(=O)Nc2cc3n(n2)CCN3c2cccc(Cl)c2)c1 [Compound I-247] |
| ≥ 95% | CNC(=O)Nc1nc2c(s1)CN(c1cc(Oc3ccccc3)nc(OC(C)(C)C)n1)CC2 [Compound I-150] |
| ≥ 95% | O=C(NCCC(=O)N1CCOCC1)Nc1cc2n(n1)CCN2c1cccc(Cl)c1 [Compound I-218] |
| 75% | CNC(=O)Nc1cc2n(n1)CCN(c1cccc(C(=O)OC)c1)C2 [Compound I-81] |
| 87% | Nc1cc(N2CCc3nc(NC(=O)c4cccc(Cl)c4)sc3C2)nc(Cl)n1 [Compound I-137] |
| ≥ 95% | COC(=O)c1cc(N2CCc3nc(NC(=O)c4cccc(Cl)c4)sc3C2)nc(Cl)n1 [Compound I-126] |
| ≥ 95% | O=C(O)CNC(=O)Nc1cc2n(n1)CCN2c1ccccc1 [Compound I-132] |
| ≥ 95% | CC(=O)Nc1cc2n(n1)CCN2c1ccccc1 [Compound I-140] |
| ≥ 95% | CNC(=O)Nc1cc2n(n1)CCN2c1ccc(C(=O)O)c(OC)c1 [Compound I-148] |
| ≥ 95% | CNC(=O)Nc1cc2n(n1)CCN2c1cccc(-c2csc(N)n2)c1 [Compound I-192] |
| 89% | CNC(=O)Nc1cc2n(n1)CCN2c1cc(C(=O)N2CCOCC2)cc(-c2cccnc2)c1 [Compound I-199] |
| 77% | CNC(=O)Nc1cc2n(n1)CCN2C(=O)c1ccc2c(c1)CCO2 [Compound I-35] |
| 81% | CNC(=O)Nc1cc2n(n1)CCN2c1cc(C#Cc2cccnc2)cc(C(=O)N2CCOCC2)c1 [Compound I-254] |
| ≥ 95% | CNC(=O)Nc1cc2n(n1)CCN2c1cc(C(=O)N2CCOCC2)cc(-c2cnc(N)nc2)c1 [Compound I-209] |

Same assay, conditions: 0.5 h; compound at 10 μmol/L

| inhibition at 10 µM | Structure (SMILES) |
| --- | --- |
| 87% | CN1CCc2cc(N3CCn4nc(NC(=O)c5csc(C(=O)OC(C)(C)C)c5)cc43)ccc2C1=O [Compound I-413] |
| ≥ 95% | CN1CCc2cc(N3CCn4nc(NC(=O)c5cccc(C(=O)O)c5)cc43)ccc2C1=O [Compound I-472] |
| 91% | CC(=O)Nc1nc2ccn(-c3cccc(Cl)c3)c2s1 [Compound I-471] |
| 91% | CN1CCc2cc(N3CCn4nc(NC(=O)c5cc6cccnc6[nH]5)cc43)ccc2C1=O [Compound I-385] |
| 89% | CNC(=O)Nc1cc2n(n1)CCN2c1ccc2c(c1)CCN(C)C2=O [Compound I-336] |
| ≥ 95% | CN1CCc2cc(N3CCn4nc(NC(=O)c5cnc(N6CCC[C@H]6C(=O)O)s5)cc43)ccc2C1=O [Compound I-536] |
| 84% | COc1cc(N2CCc3nc(NC(=O)NC4CCCCC4)sc3C2)nc(OC)n1 [Compound I-294] |
| ≥ 95% | CC(C)Oc1cccc(C(=O)Nc2cc3n(n2)CCN3c2ccc3c(c2)CCN(C)C3=O)c1 [Compound I-463] |
| 92% | CC(=O)c1ccc(C(=O)Nc2cc3n(n2)CCN3c2ccc3c(c2)CCN(C)C3=O)s1 [Compound I-440] |
| ≥ 95% | CN1CCc2cc(N3CCn4nc(NC(=O)c5cccc(F)c5)cc43)ccc2C1=O [Compound I-464] |
| 89% | CN1CCc2cc(N3CCn4nc(NC(=O)c5sccc5Cl)cc43)ccc2C1=O [Compound I-445] |
| ≥ 95% | CC(=O)Nc1cc2n(n1)CCN2c1ccc2c(c1)CCC(=O)N2 [Compound I-335] |
| ≥ 95% | Cc1ncsc1C(=O)Nc1cc2n(n1)CCN2c1ccc2c(c1)CCN(C)C2=O [Compound I-449] |
| 95% | CC(C)CC(=O)Nc1ncc(C(=O)Nc2cc3n(n2)CCN3c2ccc3c(c2)CCN(C)C3=O)s1 [Compound I-533] |
| ≥ 95% | COc1cc(N2CCc3nc(NC(=O)NCC(C)C(=O)NC(C)C)sc3C2)nc(OC)n1 (stereo not shown) [Compound I-547] |
| ≥ 95% | COCCNC(=O)c1ccc(C(=O)Nc2cc3n(n2)CCN3c2ccc3c(c2)CCN(C)C3=O)s1 [Compound I-410] |

| inhibition at 10 µM | Structure (SMILES) |
| --- | --- |
| 89% | COc1cc(N2CCc3nc(NC(=O)NCCC(=O)N4CCC[C@H]4C(=O)N(C)C(C)C)sc3C2)nc(OC)n1 [Compound I-313] |
| 81% | CN1CCc2cc(N3CCn4nc(NC(=O)c5ccccc5N)cc43)ccc2C1=O [Compound I-500] |
| ≥ 95% | O=C(Nc1cc2n(n1)CCN2c1ccc2cnccc2c1)OCc1ccccc1 [Compound I-291] |
| 82% | COc1cc(N2CCc3nc(NC(=O)Cc4ccccc4C(=O)NC(C)(C)C)sc3C2)nc(OC)n1 [Compound I-337] |
| ≥ 95% | CNC(=O)Nc1nc2c(s1)CN(c1cc(N(C)C)nc(OC)n1)CC2 [Compound I-362] |
| 94% | CC(C)CCNC(=O)CCNC(=O)Nc1cc2n(n1)CCN2c1ccc2c(c1)CCN(C)C2=O [Compound I-538] |
| 83% | CC(C)NC(=O)c1cc(C(=O)Nc2cc3n(n2)CCN3c2ccc3c(c2)CCN(C)C3=O)cs1 [Compound I-419] |
| 78% | CNc1ccccc1C(=O)Nc1cc2n(n1)CCN2c1ccc2c(c1)CCN(C)C2=O [Compound I-494] |
| 85% | COc1cc(N2CCc3nc(NC(=O)Nc4ccccn4)sc3C2)nc(OC)n1 [Compound I-302] |
| ≥ 95% | CN1CCc2cc(N3CCn4nc(NC(=O)C(=O)c5cccs5)cc43)ccc2C1=O [Compound I-450] |
| 80% | CN1CCc2cc(N3CCn4nc(NC(=O)c5ccc(S(C)(=O)=O)s5)cc43)ccc2C1=O [Compound I-344] |
| 87% | COc1cc(N2CCc3nc(NC(=O)c4ccc(C)o4)sc3C2)nc(OC)n1 [Compound I-456] |
| 91% | CC(C)CNC(=O)c1ccc(C(=O)Nc2cc3n(n2)CCN3c2ccc3c(c2)CCN(C)C3=O)cc1 [Compound I-534] |
| 95% | CN1CCc2cc(N3CCn4nc(NC(=O)c5cccc(O)c5)cc43)ccc2C1=O [Compound I-461] |
| 81% | CC(C)NC(=O)c1ccccc1NC(=O)Nc1nc2c(s1)CN(C(=O)c1ccc(O)cc1)CC2 [Compound I-550] |

Same assay, conditions: 0.5 h; compound at 50 μmol/L

| inhibition at 50 µM | Structure (SMILES) |
| --- | --- |
| ≥ 95% | CC(=O)Nc1cc2n(n1)CCN2c1ccc2c(c1)CCN(C(=O)OC(C)(C)C)C2 [Compound I-301] |
| 92% | CN1CCc2cc(N3CCn4nc(NC(=O)C5CCNC5)cc43)ccc2C1=O (stereo not shown) [Compound I-355] |

From patent US20110230472A1, “RING-FUSED AZOLE DERIVATIVE HAVING PI3K-INHIBITING ACTIVITY” (Shionogi & Co., Ltd., priority 2008, published 2011)
